From patent publication US20150335692A1, “ORAL PREPARATION, INJECTION PREPARATION, EXTERNAL SKIN PREPARATION AND COSMETIC METHOD FOR PREVENTING OR IMPROVING WRINKLES” (Shiseido Company, Ltd., priority 2008, published 2015)

Legend:
fine wrinkle model = test: Anti-wrinkle effects in fine wrinkle model (visual wrinkle score); format: in vivo; settings: 1 mM in 50% aqueous ethanol, 100 μl applied to skin three times a week for two weeks; scored two weeks later; higher scores indicate deeper wrinkles
Method: The anti-wrinkle effects of the heparanase inhibitor, suramin, were assessed using a fine wrinkle model (Non-Patent Document 2).
Suramin was dissolved in 50% aqueous ethanol solution to a concentration of 1 mM and applied in 100 μl aliquots to skin of the fine wrinkle model three times a week for a period of two weeks during which time fine wrinkles are formed. A 50% aqueous ethanol solution was used as a solvent control.
The formation of wrinkles two weeks later was scored by visual evaluation. Wrinkle formation was scored in increments of 0.5 based on evaluation criteria consisting of: no wrinkles: 0, slight wrinkles: 1, obvious wrinkles: 2 and deep wrinkles: 3. Higher scores indicate deeper wrinkles. In contrast to the mean value of the scores of the solvent control being 0.78, that for suramin was 0.31, thereby indicating significant wrinkle inhibitory effects as compared with the solvent control. Namely, the application of suramin at 1 mM significant inhibited wrinkle formation as compared with 50% ethanol applied as a solvent control. […]
The formation of wrinkles two weeks later was scored by visual evaluation. Wrinkle formation was scored in increments of 0.5 based on evaluation criteria consisting of: no wrinkles: 0, slight wrinkles: 1, obvious wrinkles: 2 and deep wrinkles: 3. […]

[1] = test system: basement membrane heparan sulfate chains; test: Immunostaining of epidermal basement membrane heparan sulfate chains in skin of fine wrinkle model; format: in vivo; settings: skin coated with 1 mM compound versus 50% ethanol solvent control
Description: Next, heparan sulfate chains were immunostained for the skin after 2 days, 1 week and 2 weeks, and the staining results are shown in FIG. 4. Although staining of basement membrane heparan sulfate chains decreased from 2 days to 1 week in skin of the solvent control, stainability of basement membrane heparan sulfate chains was protected by application of suramin.
Next, heparan sulfate chains and perlecan core protein in the skin were immunostained, and the staining results are shown in FIG. 6. Although staining of basement membrane heparan sulfate chains decreased considerably for the solvent control, stainability of basement membrane heparan sulfate chains was protected in the 1-[4-(1H-benzoimidazol-2-yl)-phenyl]-3-[4-(1H-benzoimidazol-2-yl)-phenyl]-urea application group.

HT1080 cells = test: Secondary evaluation: wound healing assay using HT1080 cells; format: cell-based; settings: HT1080 cells, 1, 10, 100 μM, DMSO control
Description: (§1) As will be described in detail in the following examples, primary evaluation of heparanase activity can be carried out by, for example, immobilizing biotinylated heparan sulfate in a 96-well plate, allowing the heparanase to act in the presence of a pharmaceutical preparation or herbal medicine, and evaluating the activity of heparanase as the amount of the decrease in biotinylated heparan sulfate by allowing peroxidase-labeled avidin to act thereon and developing the resulting color. […] Secondary evaluation can be carried out by using HT1080 cells expressing heparanase. When HT1080 cells are scratched after having been cultured to confluency, cells are known to migrate in a heparanase activity-dependent manner (see Ishida, K., et al., Mol. Cancer Ther., 2004, 3(9): 1069-1077 (Non-Patent Document 4)). Therefore, heparanase inhibitory activity can be evaluated on the basis of the degree of migration (recovery) at the scratched site by adding an evaluation reagent.
HT1080 cells were inoculated into a 6-well plate at 500,000 cells/well, and the medium was replaced with that containing each drug 24 hours later followed by scratching in the vertical direction with a 1000 μL tip. Micrographs were taken 6 hours later and changes at the scratched site were observed. […] DMSO was allowed to act as a control instead of the candidate drugs.

heparanase = molecular target: T1, heparanase (Homo sapiens, UniProt Q9Y251); test: Primary evaluation: heparanase activity inhibition, A431 cell extract on biotinylated heparan sulfate-immobilized plate; format: biochemical; settings: 2 hours at 37° C., DMSO control
T1 construct: the resulting supernatant was used as a cell extract; endogenous in cells; host or cells: A431 cells (lysate supernatant)
T1 sequence (Q9Y251 158-543 limits assumed): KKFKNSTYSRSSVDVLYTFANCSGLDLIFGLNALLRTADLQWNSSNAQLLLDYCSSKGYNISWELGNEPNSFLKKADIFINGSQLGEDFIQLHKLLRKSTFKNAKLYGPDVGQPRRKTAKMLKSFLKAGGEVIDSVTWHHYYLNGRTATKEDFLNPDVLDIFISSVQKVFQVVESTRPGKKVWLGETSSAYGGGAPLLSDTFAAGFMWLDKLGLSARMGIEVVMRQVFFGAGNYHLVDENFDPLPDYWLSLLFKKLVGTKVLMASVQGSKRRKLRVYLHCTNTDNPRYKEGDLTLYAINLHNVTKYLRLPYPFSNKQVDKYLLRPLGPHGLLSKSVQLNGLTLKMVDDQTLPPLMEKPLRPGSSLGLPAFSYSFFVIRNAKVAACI
T1 sequence (Q9Y251 36-109 limits assumed): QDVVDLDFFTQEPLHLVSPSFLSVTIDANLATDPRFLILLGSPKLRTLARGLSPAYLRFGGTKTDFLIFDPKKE
Description: as §1, with “When HT1080 cells are scratched after having been cultured to confluency, cells are known to migrate in a heparanase activity-dependent manner (see Ishida, K., et al., Mol. Cancer Ther., 2004, 3(9): 1069-1077 (Non-Patent Document 4)).” left out
A431 cells (invasive human epithelial carcinoma cells) were cultured in DMEM medium containing 10% serum. […] The amount of protein in the cell extract was measured with a BCA Protein Assay Kit (Pierce, CA46141). […]
Heparanase activity was calculated from a calibration curve of the A431 cell extract, and inhibition rate (%) was indicated as a relative value to a reference (control) to which the cell extract was not added. […]
The plant extracts were evaluated for heparanase inhibitory effects in accordance with the aforementioned primary and secondary evaluation methods using sample solutions of the plant extracts instead of 4-(1H-benzoimidazol-2-yl)-phenylamine.

| Compound | mean value of wrinkle formation scores (visual evaluation; 0 no wrinkles to 3 deep wrinkles) (fine wrinkle model) | stainability of basement membrane heparan sulfate chains (immunostaining) [1] | cell migration activity at scratched site (HT1080 cells) | IC50 (heparanase) |
| --- | --- | --- | --- | --- |
| O=C(Nc1ccc(-c2nc3ccccc3[nH]2)cc1)Nc1ccc(-c2nc3ccccc3[nH]2)cc1 [1-[4-(1H-benzoimidazol-2-yl)-phenyl]-3-[4-(1H-benzoimidazol-2-yl)-phenyl]-urea] | 0.36 | protected |  |  |
| Nc1ccc(-c2nc3ccccc3[nH]2)cc1 [4-(1H-benzoimidazol-2-yl)-phenylamine] |  |  | decreased in a concentration-dependent manner | 256 µM |
| Cc1ccc(C(=O)Nc2ccc(S(=O)(=O)O)c3cc(S(=O)(=O)O)cc(S(=O)(=O)O)c23)cc1NC(=O)c1cccc(NC(=O)Nc2cccc(C(=O)Nc3cc(C(=O)Nc4ccc(S(=O)(=O)O)c5cc(S(=O)(=O)O)cc(S(=O)(=O)O)c45)ccc3C)c2)c1 [suramin] | 0.31 | protected |  |  |
